# Results from US20240115682A1, “METHODS OF TREATING CANCER USING HETEROARYL-BIPHENYL AMIDE DERIVATIVES” (CHEMOCENTRYX, INC., priority 2020, published 2024).
# “Also recorded” adds a separate entry of the source. Where two headings read alike, the source gives them in different places.
# How the values were obtained:
# [1] = Plasma compound concentration in MC38-hPD-L1 tumor model; type: in vivo, mouse; conditions: trough after 3 days of dosing, oral
# Experimental: (§1) In Vivo Studies: 8-week-old, female C57BL/6 mice were injected s.c. with 5×10^5 MC38-hPD-L1 cells in the right flank. 9 days after tumor inoculation mice were randomly assigned to treatment groups based on tumor size. Only mice that developed measurable tumors were enrolled in the studies. Anti-PD-L1 (Durvalumab) or isotype control was given i.p. twice a week at 100 ug per mouse per dose for 2 weeks. Compound 2.001 and Compound 2.002 suspended in 1% HPMC was dosed p.o. daily at indicated doses, dosing volume 100 μl per mouse. The vehicle, 1% HPMC, was dosed at the same volume with the same frequency for control animals.
# [2] = tested on: A375-eGFP cells; experiment: In Vitro Immunotherapy Potency Assay (PBMC-mediated tumor cell killing); type: cell-based; conditions: in the presence of pre-stimulated primary human PBMCs
# Experimental: In Vitro Immunotherapy Potency Assay: A375-eGFP-Puro Cells (ATCC) were grown in complete medium (DMEM+10% FBS+P/S 1×) containing lug/ml of puromycin. Human peripheral blood mononuclear cells (hPBMCs) were isolated from buffy coat from LRS chambers (leukoreduction systems) from healthy donors by density gradient centrifugation using StemCell SepMate™-50 tubes ([…] Technologies, Vancouver, CA) containing Ficoll-Paque Plus (Sigma Aldrich Inc., St. Louis, MO). […] Cells were washed twice and re-suspended into regular growth media. 3×10^4 A375-eGFP-Puro cells were seeded in 96-well clear bottom black TC treated plates in a final volume of 100 ul (Corning). Test compounds or anti-human PD-L1 antibody (AZ Medi4736 analog, CrownBio, Beijing) were added to the wells at different concentrations. SEB stimulated hPBMCs were added to the wells at a ratio of E:T (Effector cell: Target Cell) of […]. Mixed cells were incubated for 96 to 120 hours at 37° C. in 5% CO2. Medium was carefully aspired and 100 μl of PBS 1× was added to each well. Fluorescence from A375-eGFP cells was detected using FlexStation 3 plate reader.
# [3] = target: T1, PD-L1 (Homo sapiens (Human), UniProt Q9NZQ7); experiment: PD-L1 Internalization Assay (surface PD-L1 by flow cytometry); type: cell-based; conditions: 37° C.
# Experimental: Internalization Assay: MC38-hPD-L1 cells (GenOway S.A., France) and RKO cells (ATCC) growing at 37° C. in 5% CO2 were detached, resuspended in cold FACS buffer (PBS 1× with 10% FBS and 0.1% azide) and added to 96-well assay plates (V-Bottom) (Axygen, Union City, CA) at a concentration of 10×10^4 cells/well. ChemoCentryx compounds or anti-human PD-L1 antibody (AZ Medi4736 analog) were added to the wells at different concentrations and incubated for 2 hours at 37° C. or 4° C. Cells were washed twice with iced cold FACS buffer and stained with recombinant rabbit monoclonal anti human PD-L1 antibody ([28-8] (PE) (ab209962), Abcam) or recombinant rabbit monoclonal IgG Isotype control ([EPR25A] (PE) (ab209478), Abcam) for 30 minutes on ice. Cells were washed twice with FACS buffer before performing FACS analysis. Data were analyzed using FlowJo software.
# Target sequence in this assay (Q9NZQ7 19-290): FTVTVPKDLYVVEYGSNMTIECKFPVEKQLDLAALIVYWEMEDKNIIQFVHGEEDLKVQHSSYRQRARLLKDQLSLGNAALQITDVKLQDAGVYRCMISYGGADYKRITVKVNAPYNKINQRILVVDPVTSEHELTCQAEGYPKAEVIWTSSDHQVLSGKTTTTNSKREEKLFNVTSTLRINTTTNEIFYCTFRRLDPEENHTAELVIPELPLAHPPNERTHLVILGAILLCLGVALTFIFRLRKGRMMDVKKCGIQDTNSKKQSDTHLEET
# [4] = tested on: MC38-hPD-L1 tumor; experiment: MC38-hPD-L1 tumor model in C57BL/6 mice; type: in vivo, mouse; conditions: for animals that achieved complete regression: 10 mice in each group, compounds 30 mg/kg orally b.i.d., antibody i.p. twice a week
# Experimental: Generation and culture of MC38-hPD-L1 cells: The compounds are only known to cross-react with human PD-L1, therefore a syngeneic tumor model with […] MC-38 colon tumor cells expressing human PD-L1 (MC38-hPD-L1 tumor model) was used. The MC38-hPD-L1 cells were generated by GenOway. Endogenous mouse PD-L1 was first knocked out in MC38 cells using CRISPR technology, then human PDL1 was stably transfected in these mouse PD-L1 Knock-out MC38 cells. The MC38-hPD-L1 cells were cultured under standard conditions for MC38 cells (DMEM with 10% fetal bovine serum and Penicillin/Streptomycin) with G418 for maintaining transgene expression. 2 days prior to inoculation of these cells to mice, cells were trysinized and seeded without antibiotics.
# as §1
# Tumor volume was measured three times per week using a digital caliper and calculated as (width^2*length/2). Mice were sacrificed when tumor volumes reached 2,000 mm^3 in accordance with IACUC guidelines.
# Tumor width (W) and length (L) were measured with calipers 3 times a week and the tumor volume was calculated using the formula V=(W (2)×L)/2. When tumors reach 2000 mm^3 mice were sacrificed and tumor excised for further analysis.
# [5] = target: human PD-L1 / human PD-1 interaction (Homo sapiens (Human), UniProt Q9NZQ7); experiment: PD-1/PD-L1 binding ELISA
# human PD-L1 / human PD-1 interaction, sequence (Q9NZQ7 19-239): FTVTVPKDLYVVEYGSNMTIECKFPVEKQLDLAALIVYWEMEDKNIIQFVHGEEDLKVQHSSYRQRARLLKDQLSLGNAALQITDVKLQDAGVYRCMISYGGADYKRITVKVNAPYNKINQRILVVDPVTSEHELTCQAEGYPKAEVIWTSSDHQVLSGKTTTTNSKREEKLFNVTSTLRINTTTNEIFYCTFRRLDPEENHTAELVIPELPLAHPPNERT
# Experimental: 96 Well plates were coated with 1 μg/mL of human PD-L1 (obtained from R&D) in PBS overnight at 4° C. The wells were then blocked with 2% BSA in PBS (W/V) with 0.05% TWEEN-20 for 1 hour at 37° C. The plates were washed 3 times with PBS/0.05% TWEEN-20 and the compounds were serial diluted (1:5) in dilution medium and added to the ELISA plates. Human PD-1 and biotin 0.3 μg/mL (ACRO Biosystems) were added and incubated for 1 hour at 37° C. then washed 3 times with PBS/0.05% TWEEN-20. A second block was performed with 2% BSA in PBS (W/V)/0.05% TWEEN-20 for 10 min at 37° C. and the plates were washed 3 times with PBS/0.05% TWEEN-20. Streptavidin-HRP was added for 1 hour at 37° C. then the plates were washed 3 times with PBS/0.05% TWEEN-20. TMB substrate was added and reacted for 20 min at 37° C. A stop solution (2 N aqueous H2SO4) was added. The absorbance was read at 450 nm using a micro-plate spectrophotometer. The results are shown in Table 1: IC50 values are provided as follows: from 1000 to 10,000 nM (+); from 10 up to 1000 nM (++); less than 10 nM (+++).
# ELISA: This assay was performed substantially as described in Biological Example 1.
# [6] = tested on: human T cells; experiment: Mixed Lymphocyte Reaction (MLR), IFNgamma release; type: cell-based; conditions: for EC50: Homo sapiens, T-cell, T cells from different donors, read-out: EC50, release of INFgamma from human T cells
# Text: PBMCs Isolation: Peripheral blood mononuclear cells (PBMCs) were isolated from buffy coat from LRS chambers (leukoreduction systems) from healthy donors by density gradient centrifugation using StemCell SepMate™-50 tubes ([…] Technologies, Vancouver, CA) containing Ficoll-Paque Plus (Sigma Aldrich Inc., St. Louis, MO).
# Generation of monocyte derived dendritic cells: CD14^+ monocytes were isolated from PBMCs by magnetic separation using human CD14^+ MicroBeads (MACS Miltenyi Biotech, Bergisch Gladbach, Germany) and an autoMACS® Pro Separator. Isolated monocytes were plated at a concentration of 1×10^6 cells/ml and differentiated to dendritic cells by adding GM-CSF (100 ng/ml) and IL-4 (50 ng/ml) for 6 days. Fresh media with cytokine supplement were added on day 0 and day 2. Mature dendritic cells were induced on day 6 by addition of IL-6 (2000 IU/ml), IL-1B (400 IU/ml) (Peprotech, Inc. Rocky Hill, NJ), TNFalpha (2000 IU/ml) and PGE2 (2 ug/ml) (Sigma Aldrich, Inc.) and cultured for 24 hours.
# Preparation of human effector cells: CD4^+ T-Cells were isolated from PBMCs by magnetic separation using human CD4^+ MicroBeads (MACS Miltenyi Biotech) and an autoMACS® Pro Separator.
# Mixed Lymphocyte Reaction (MLR): DC and CD4^+T-Cells from unmatched donors were cultured together in a ratio of 1:10 for 5 days in 96 well-flat bottom plates (Thermo Scientific). Test compounds were added as indicated at starting concentration of 1 μM with 1:4 dilutions with DMSO. PD-L1 antibody (AZ Medi4736 analog) and isotype control (Human IgG1, Kappa Isotype Control) (CrownBio, Beijing) were used as positive and negative control respectively. Supernatants were harvested after 5 days of incubation and detection of human IFNg was performed by ELISA using Human IFN-gamma DuoSet ELISA (R&D Systems, Minneapolis) as per manufacturer's instructions.
# [7] = target: T1, PD-L1; experiment: PathHunter PD-L1 Dimerization Assay in U2OS cells; type: cell-based
# Experimental: Dimerization Assay PD-L1 protein dimerization was assessed in vitro by chemiluminescent detection using PathHunter® Dimerization assay (DiscoverX, Fremont, CA). The Assay was performed following vendor's protocol. 2×10^4 U2OS cells were plated in 96-well white bottom TC treated plates (Costar, San Jose, CA) in a final volume of 100 ul. ChemoCentryx compounds or anti-human PD-L1 antibody (AZ Medi4736 analog, CrownBio, Beijing) were added to experimental cells at different concentrations and incubated for 16 hours at 37° C. in 5% CO2. 110 ul of PathHunter Flash detection reagent (DiscoverX) was added to each well and incubated for 1 hour at room temperature in the dark. Chemiluminescent signal was measured on a FlexStation 3 plate reader (Molecular Devices, San Jose, CA) at a speed of 100 ms/well.
# Target sequence in this assay (Q9NZQ7 19-290): as the sequence (Q9NZQ7 19-290) above
# Target sequence in this assay (Q9NZQ7 19-290): as above
# [8] = tested on: PD-1/PD-L1 interaction; experiment: PD-1/PD-L1 Blockade Cell-based Assay (NFAT luciferase reporter, CHO PD-L1 + Jurkat PD-1); conditions: Homo sapiens; CHO PD-L1 / Jurkat PD-1 co-culture; read-out: average EC50, NFAT promoter-driven luciferase expression
# [9] = target: T1, PD-L1; experiment: PD-L1 occupancy on cells isolated from MC38-hPD-L1 tumors (flow cytometry); type: in vivo, mouse; conditions: cells from treated MC38-hPD-L1 tumors
# Experimental: (§2) Cellular phenotyping of tumor infiltrates: Excised tumors were finely chopped with a blade and meshed through 200 um sieve. Cells were then filtered through a […] sieve. Cells were washed and resuspended in FACS buffer (PBS 1× with 10% FBS and 0.1% azide).
# (§3) Antibodies for flow cytometry were obtained from BioLegend (San Diego, CA). Flow cytometer panel included CD45 in FITC, PD-L1 in PE, CD8 in APC, CD4 in APC-Cy7. Flow cytometry data were acquired with a FACSCanto II (BD Biosciences, San Jose, CA) cytometer and analyzed using FlowJO v10.2 (FlowJo, Ashland, OR)
# To examine the extent Compound 2.001 occupys PD-L1 on tumor cells, we utilized another PD-L1 detection antibody to stain the cells isolated from these tumors.
# Target sequence in this assay (Q9NZQ7 19-290): as above
# [10] = tested on: tumor infiltrating CD8+ and CD4+ T cells; experiment: Cellular phenotyping of tumor infiltrates in MC38-hPD-L1 tumor model; type: in vivo, mouse; conditions: MC38-hPD-L1 tumors
# Experimental: as §2, §3
# [11] = PD-1/PD-L1 ELISA, class symbols, read-out: ELISA IC50
# [12] = average from multiple assays, read-out: average IC50, inhibition of direct interaction of PD-L1 to PD-1
plasma compound concentrations [1],"IC50 [5, 11] [nM]","IC50 [5, 12] [nM]",EC50 [6] [nM],EC50 [8] [nM],PD-L1 dimerization signal ([7]; listed as anti-PD-L1 antibody),PD-L1 occupancy on tumor cells [9],Molecule,killing of GFP labeled human cancer cell line A375 [2],surface PD-L1 levels [3],"mice with complete eradication of the tumors ([4]; 30 mg/kg (b.i.d.), orally)","tumor growth ([4]; dosed orally, several doses)",release of INFgamma from human T cells [6],PD-L1 dimerization signal [7],animals that achieved complete regression [4] [animals],tumor infiltrating CD8+ and CD4+ T cells [10]
dose-dependency,< 10,0.4,< 100,46,–,–,COc1nc(-c2cccc(-c3cccc(NC(=O)c4cn(C)c(=O)n(C)c4=O)c3Cl)c2Cl)ccc1CNC[C@@H]1CCC(=O)N1 [Compound 2.002],promote killing,profoundly reduces surface PD-L1 levels; also recorded: lower the surface PD-L1 levels,Eight of the ten,dose dependently suppresses tumor growth; also recorded: tumor growth suppression in a dose-dependent manner,dose dependently increase,strongly induced the dimerization signal; also recorded: induce PD-L1 dimerization,–,–
–,–,–,–,–,do not induce such signal,–,Durvalumab [reference compound],–,no effect,–,–,–,–,6,–
–,< 10,–,–,–,–,–,COc1nc(-c2cccc(-c3cccc(NC(=O)c4cn(C)c(=O)n(C)c4=O)c3C)c2Cl)ccc1CN[C@@H]1CCOC[C@@H]1O [Compound 2.003],–,–,–,–,–,–,–,–
–,< 10,0.3,< 100,52,–,near complete PD-L1 occupancy,COc1nc(-c2cccc(-c3cccc(NC(=O)c4cn(C)c(=O)n(C)c4=O)c3C)c2Cl)ccc1CNC[C@@H]1CCC(=O)N1 [Compound 2.001],promote killing,profoundly reduces surface PD-L1 levels; also recorded: lower the surface PD-L1 levels,–,–,dose dependently increase,strongly induced the dimerization signal; also recorded: induce PD-L1 dimerization,4,increased
